In patent publication US20240368121A1, “ESTROGEN RECEPTOR DEGRADERS, PHARMACEUTICAL COMPOSITIONS THEREOF, AND THEIR THERAPEUTIC APPLICATIONS” (BioTheryX, Inc., priority 2021, published 2024):

Key:
Format in all cases: cell-based
ERα = biological target: T1, ERα (Homo sapiens, UniProt P03372); assay: Protein degradation assay: ERα in MCF-7 cells via western blot; settings: 6 h; for ERα Protein Degradation 1 nM: 1 nM compound; for ERα Protein Degradation 10 nM: 10 nM compound; for ERα Protein Degradation 100 nM: 100 nM compound
T1 construct: degrading an ERα in MCF-7 cells via a western blot; endogenous in cells; host or cells: MCF-7
T1 sequence (P03372 1-595): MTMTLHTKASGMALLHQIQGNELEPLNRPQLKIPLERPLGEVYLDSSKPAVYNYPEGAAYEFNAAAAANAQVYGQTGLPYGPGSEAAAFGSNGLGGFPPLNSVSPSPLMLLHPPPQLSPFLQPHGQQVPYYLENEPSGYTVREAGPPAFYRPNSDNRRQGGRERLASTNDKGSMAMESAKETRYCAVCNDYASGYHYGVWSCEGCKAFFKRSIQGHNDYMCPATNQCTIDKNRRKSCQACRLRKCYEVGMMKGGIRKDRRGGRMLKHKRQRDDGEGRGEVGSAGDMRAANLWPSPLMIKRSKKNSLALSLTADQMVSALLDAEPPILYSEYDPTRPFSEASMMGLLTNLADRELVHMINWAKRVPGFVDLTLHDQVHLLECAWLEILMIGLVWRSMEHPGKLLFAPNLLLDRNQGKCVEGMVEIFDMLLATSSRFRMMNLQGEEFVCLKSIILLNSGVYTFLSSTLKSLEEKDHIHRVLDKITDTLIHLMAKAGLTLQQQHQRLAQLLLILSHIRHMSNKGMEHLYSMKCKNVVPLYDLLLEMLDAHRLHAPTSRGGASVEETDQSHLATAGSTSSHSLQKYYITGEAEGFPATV
How it was run: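 MCF-7 cells in MEM/10% FBS with insulin, seeded 300,000/well, treated 6 h at set concentrations (e.g., 1 nM–1 μM). Whole-cell lysates immunoblotted for ERα with GAPDH loading control, chemiluminescent detection; percentage degradation reported in binned categories (≥50%, 25–50%, 10–25%, <10%).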

T47D cells = assay: Cell viability assay ([…]-GLO, 6-day treatment); settings: Homo sapiens, 144 h, 6 days, CTG, read-out: Inhibition of Cancerous Cells IC50 T47D
How it was run: (§1)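 MCF7 (MEM) and T47D (RPMI with insulin), both with 10% FBS, at 1,000 cells/well, treated with a 10-point compound dose series for 6 days, with medium and compound refreshed once. Viability read by CellTiter-Glo luminescence.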

MCF7 cells = assay: Cell viability assay ([…]-GLO, 6-day treatment); settings: Homo sapiens, MCF7, 144 h; MCF-7 cells, 6 days, CTG; read-out: Inhibition of Cancerous Cells IC50 MCF-7
How it was run: as §1

Row | IC50 (T47D cells) | IC50 (MCF7 cells) | SMILES | ERα Protein Degradation 1 nM (ERα) | ERα Protein Degradation 10 nM (ERα) | ERα Protein Degradation 100 nM (ERα)
1 | 1.2 nM | 0.73 nM | O=C1CCC(Nc2cccc(NC3CCN(CC4CCN(c5ccc([C@@H]6c7ccc(O)cc7CC[C@@H]6c6ccccc6)cc5)CC4)CC3)c2)C(=O)N1 (stereo partly drawn) [Compound B14, 3-((3-((1-((1-(4-((1R,2S)-6-hydroxy-2-phenyl-1,2,3,4-tetrahydronaphthalen-1-yl)phenyl)piperidin-4-yl)methyl)piperidin-4-yl)amino)phenyl)amino)piperidine-2,6-dione] | D (a percentage degradation value of less than 10%) | D (a percentage degradation value of less than 10%) | D (a percentage degradation value of less than 10%)
2 | 0.18 nM | 145 nM | O=C1CCC(N2Cc3c(csc3C3CCN(CC4CCN(c5ccc([C@@H]6c7ccc(O)cc7CC[C@@H]6c6ccccc6)cc5)CC4)CC3)C2=O)C(=O)N1 (stereo partly drawn) [Compound A7, 3-(1-(1-((1-(4-((1R,2S)-6-hydroxy-2-phenyl-1,2,3,4-tetrahydronaphthalen-1-yl)phenyl)piperidin-4-yl)methyl)piperidin-4-yl)-4-oxo-4H-thieno[3,4-c]pyrrol-5(6H)-yl)-piperidine-2,6-dione] | D (a percentage degradation value of less than 10%) | D (a percentage degradation value of less than 10%) | D (a percentage degradation value of less than 10%)
3 | 0.48 nM | 1.2 nM | O=C1CCC(c2cccc(OCC(=O)N3CCN(CCCCOc4ccc([C@@H]5c6ccc(O)cc6CC[C@@H]5c5ccccc5)cc4)CC3)c2)C(=O)N1 (stereo partly drawn) [Compound B5, 3-(3-(2-(4-(4-(4-((1R,2S)-6-hydroxy-2-phenyl-1,2,3,4-tetrahydronaphthalen-1-yl)phenoxy)butyl)piperazin-1-yl)-2-oxoethoxy)phenyl)piperidine-2,6-dione] | D (a percentage degradation value of less than 10%) | D (a percentage degradation value of less than 10%) | D (a percentage degradation value of less than 10%)
4 | 1.3 nM | 1.8 nM | Cc1c(-c2ccc(O)cc2)n(Cc2ccc(OCCCCN3CCN(C(=O)COc4ccc5c(N6CCC(=O)NC6=O)nn(C)c5c4)CC3)cc2)c2ccc(O)cc12 [Compound E16, 1-(6-(2-(4-(4-(4-((5-Hydroxy-2-(4-hydroxyphenyl)-3-methyl-1H-indol-1-yl)-methyl)phenoxy)butyl)piperazin-1-yl)-2-oxoethoxy)-1-methyl-1H-indazol-3-yl)dihydro-pyrimidine-2,4(1H,3H)-dione] | C (a percentage degradation value of less than 25% and no less than 10%) | C (a percentage degradation value of less than 25% and no less than 10%) | D (a percentage degradation value of less than 10%)
